Paper PMC5566973 (Frontiers in Pharmacology, 2017)
Several values for one entry are separate records, joined by “and”; a condition that tells them apart may be missing. Equal values may be shown once.

Key:
[1] = Urinary and fecal excretion in rats; format: in vivo, Sprague-Dawley rats; settings: for Cumulative excretion of the analyte, SUM of urine and feces: within 72 h
Description: Access to water was maintained all the time. Samples including blank urine and feces before dosing, urine and feces from 0 to 24 h, 24 to 48 h, and 48 to 72 h after dosing were collected and stored at −80°C until analysis.
Urine samples were thawed and an aliquot of 100 μL was processed for detection as described in Section Drug Analysis. Feces were homogenized and then weighed, added 6-folds of acetonitrile, extracted by ultrasonic wave for 1 h and then centrifuged. An aliquot of 100 μL was also processed for detection as described in Section Drug Analysis.

[2] = biological target: T1, human MRP2 (Homo sapiens, UniProt Q92887); assay: Vesicular transport assay, Sf9 membrane vesicles expressing human MRP2; format: in vitro ADME; settings: 1 μM, MgATP vs MgAMP
T1 construct: purchased GenoMembrane (Kanagawa, Japan); host or cells: Sf9
Description: (§1) The vesicular transport assay was implemented as described in the GenoMembrane™ vesicular transport kit protocol (GenoMembrane, Kanagawa, Japan) with minor changes. Briefly, vesicle stocks were thawed and diluted with assay buffer (50 mM MOPS-Tris, 70 mM KCl, and 7.5 mM MgCl2). […] MgAMP instead of MgATP was used as a control. Apart from these, 4 mM glutathione was also included in BCRP and MRP2 assays. Transport was terminated with ice cold assay buffer, and then samples were quickly transferred to a filter plate. Wells were immediately washed 5 times with 200 μL assay buffer and dried. The vesicles on the plate were dissolved in 50 μL of 80% methanol and centrifuged at 2,000 rpm for 2 min after collection, and repeating the above procedures. Mixed the two filtrates together and added the pre-cooled methanol. After centrifugation at 12,000 rpm for 5 min at 4°C, a 5 μL aliquot of supernatant was injected into the UPLC-ESI-MS/MS system for analysis. Furthermore, the uptake of NMQ (MDR1), LY (BCRP), and E217βG (MRP2) was used to evaluate the activity of specific vesicles.

[3] = biological target: T2, human MDR1 (Homo sapiens, UniProt P08183); assay: Vesicular transport assay, Sf9 membrane vesicles expressing human MDR1; format: in vitro ADME; settings: 1 μM, MgATP vs MgAMP
T2 construct: purchased GenoMembrane (Kanagawa, Japan); host or cells: Sf9
Description: as §1

[4] = test system: MCTs; assay: Bidirectional transport in MDCK cell monolayers with selective transporter inhibitors or substrates; format: in vitro ADME, canine; settings: dog, with phloretin 0.3 mM, + Phloretin 0.3 mM (MCTs)
[5] = test system: OATPs; assay: as above; format: in vitro ADME, canine; settings: dog, with ES 0.05 mM (50 μM), + ES 0.05 mM (OATPs)
[6] = as above; format: in vitro ADME, canine; settings: dog, Control (no inhibitor or substrate), read-out: ER
[7] = test system: PEPT1; assay: as above; format: in vitro ADME, canine; settings: dog, with Gly-Sar 10 mM, + Gly-Sar 10 mM (PEPT1)
[8] = test system: Caco-2 cell monolayers; settings: Caco-2 monolayers, 250–500 μM; ref Khan et al., 2004; cited from earlier work
[9] = set-up: method as in Wu et al., 2009; settings: wild-type and CYP2D6-humanized mice, intraperitoneal injection, 5 or 15 mg/kg; ref Wu et al., 2009; cited from earlier work
[10] = test system: MCTs; assay: in vitro; settings: human, Caco-2, ER, Caco-2, 2 μM, + Phloretin 0.3 mM (MCTs)
[11] = test system: OCTs/OCTNs; assay: in vitro; settings: human, Caco-2, ER, Caco-2, 2 μM, + TEA 5 mM (OCTs/OCTNs)
[12] = test system: SGLT1; assay: in vitro; settings: human, Caco-2, ER, Caco-2, 2 μM, + Phloridzin 0.5 mM (SGLT1)
[13] = after oral harmaline 40.0 mg/kg, 24 h
[14] = after oral harmaline 40.0 mg/kg, 48 h
[15] = after oral harmaline 40.0 mg/kg, 72 h
[16] = after oral harmaline 40.0 mg/kg
[17] = after oral harmine 40.0 mg/kg, 24 h
[18] = after oral harmine 40.0 mg/kg, 48 h
[19] = after oral harmine 40.0 mg/kg, 72 h

T1 sequence (Q92887 whole entry): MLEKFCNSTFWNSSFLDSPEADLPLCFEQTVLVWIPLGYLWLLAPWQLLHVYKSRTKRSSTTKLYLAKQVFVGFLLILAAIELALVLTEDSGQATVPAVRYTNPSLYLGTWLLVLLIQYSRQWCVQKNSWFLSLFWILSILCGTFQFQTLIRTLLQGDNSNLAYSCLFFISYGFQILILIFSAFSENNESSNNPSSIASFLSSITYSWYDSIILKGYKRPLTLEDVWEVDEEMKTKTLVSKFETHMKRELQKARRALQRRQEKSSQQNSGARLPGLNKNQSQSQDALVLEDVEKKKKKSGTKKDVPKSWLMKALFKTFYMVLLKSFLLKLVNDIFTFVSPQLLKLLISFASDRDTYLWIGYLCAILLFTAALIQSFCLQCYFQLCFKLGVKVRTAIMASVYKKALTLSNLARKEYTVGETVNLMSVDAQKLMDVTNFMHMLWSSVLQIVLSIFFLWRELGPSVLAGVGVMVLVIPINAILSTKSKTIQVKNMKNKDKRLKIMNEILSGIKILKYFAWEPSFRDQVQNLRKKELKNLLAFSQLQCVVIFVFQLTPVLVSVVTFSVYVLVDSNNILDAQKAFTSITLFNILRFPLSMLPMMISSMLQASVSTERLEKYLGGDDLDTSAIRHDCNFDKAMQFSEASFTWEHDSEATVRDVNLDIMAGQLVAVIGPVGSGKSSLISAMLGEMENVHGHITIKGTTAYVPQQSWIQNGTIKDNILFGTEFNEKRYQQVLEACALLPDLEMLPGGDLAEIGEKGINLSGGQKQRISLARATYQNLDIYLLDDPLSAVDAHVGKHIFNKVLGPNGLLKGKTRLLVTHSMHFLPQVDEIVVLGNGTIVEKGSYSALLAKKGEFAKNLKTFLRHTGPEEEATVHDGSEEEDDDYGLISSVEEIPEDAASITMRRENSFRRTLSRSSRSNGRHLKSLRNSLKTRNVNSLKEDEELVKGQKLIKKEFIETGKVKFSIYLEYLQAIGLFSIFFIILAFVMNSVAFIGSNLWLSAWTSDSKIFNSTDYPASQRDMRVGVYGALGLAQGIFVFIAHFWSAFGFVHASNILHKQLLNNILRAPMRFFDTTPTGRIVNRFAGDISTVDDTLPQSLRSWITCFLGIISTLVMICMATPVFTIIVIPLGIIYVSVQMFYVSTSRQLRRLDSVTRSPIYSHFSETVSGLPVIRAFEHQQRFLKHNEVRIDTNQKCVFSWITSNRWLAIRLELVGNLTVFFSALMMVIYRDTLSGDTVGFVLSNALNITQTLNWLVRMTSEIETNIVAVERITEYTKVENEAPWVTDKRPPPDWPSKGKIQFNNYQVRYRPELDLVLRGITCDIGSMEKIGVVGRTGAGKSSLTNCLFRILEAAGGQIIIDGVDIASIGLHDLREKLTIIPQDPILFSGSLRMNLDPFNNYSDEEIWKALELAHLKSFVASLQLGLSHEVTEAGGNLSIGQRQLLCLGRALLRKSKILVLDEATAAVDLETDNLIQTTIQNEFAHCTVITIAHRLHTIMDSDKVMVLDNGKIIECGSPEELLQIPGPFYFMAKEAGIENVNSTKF
T2 sequence (P08183 whole entry): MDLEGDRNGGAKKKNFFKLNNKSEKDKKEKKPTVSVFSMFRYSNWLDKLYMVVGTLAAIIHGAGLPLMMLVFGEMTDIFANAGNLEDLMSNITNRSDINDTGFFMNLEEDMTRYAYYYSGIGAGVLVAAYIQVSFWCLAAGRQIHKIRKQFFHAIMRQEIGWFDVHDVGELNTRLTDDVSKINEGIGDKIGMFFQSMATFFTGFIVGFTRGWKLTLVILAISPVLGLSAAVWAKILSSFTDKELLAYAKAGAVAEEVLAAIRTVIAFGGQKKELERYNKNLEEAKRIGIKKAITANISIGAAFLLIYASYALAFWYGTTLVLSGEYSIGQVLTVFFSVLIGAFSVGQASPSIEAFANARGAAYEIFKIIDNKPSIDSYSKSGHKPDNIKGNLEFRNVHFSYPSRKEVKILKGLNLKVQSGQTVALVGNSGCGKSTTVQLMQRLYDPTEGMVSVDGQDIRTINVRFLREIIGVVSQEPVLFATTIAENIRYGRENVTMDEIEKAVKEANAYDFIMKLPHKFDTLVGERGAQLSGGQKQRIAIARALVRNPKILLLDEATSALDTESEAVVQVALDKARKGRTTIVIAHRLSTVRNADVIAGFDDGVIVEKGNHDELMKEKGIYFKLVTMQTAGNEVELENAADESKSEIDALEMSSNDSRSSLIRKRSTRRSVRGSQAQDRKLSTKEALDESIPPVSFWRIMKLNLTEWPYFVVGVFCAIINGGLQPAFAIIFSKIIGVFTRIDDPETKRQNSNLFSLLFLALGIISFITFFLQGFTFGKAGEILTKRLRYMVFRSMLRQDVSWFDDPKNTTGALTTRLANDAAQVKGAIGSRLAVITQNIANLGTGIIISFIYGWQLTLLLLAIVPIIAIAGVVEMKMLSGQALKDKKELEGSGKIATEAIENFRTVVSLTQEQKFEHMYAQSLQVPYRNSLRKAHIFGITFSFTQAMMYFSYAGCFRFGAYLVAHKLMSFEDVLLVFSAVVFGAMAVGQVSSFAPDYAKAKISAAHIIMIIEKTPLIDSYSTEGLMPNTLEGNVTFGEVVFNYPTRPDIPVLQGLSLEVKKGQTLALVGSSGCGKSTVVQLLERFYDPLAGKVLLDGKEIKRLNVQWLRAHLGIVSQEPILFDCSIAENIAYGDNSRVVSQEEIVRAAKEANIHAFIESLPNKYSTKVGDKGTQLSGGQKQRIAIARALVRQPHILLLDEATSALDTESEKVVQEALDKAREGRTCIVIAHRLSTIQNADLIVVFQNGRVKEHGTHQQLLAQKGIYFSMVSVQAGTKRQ

COc1ccc2c(c1)[nH]c1c(C)nccc12 [Harmine]
Cumulative excretion in feces (%) of the analyte [1, 13]: 0.01 ± 0.01%
Cumulative excretion in urine (%) of the analyte [1, 13]: 0.03 ± 0.01%
Cumulative excretion in feces (%) of the analyte [1, 14]: 0.02 ± 0.01%
Cumulative excretion in urine (%) of the analyte [1, 14]: 0.04 ± 0.01%
Cumulative excretion in feces (%) of the analyte [1, 15]: 0.02 ± 0.01%
Cumulative excretion in urine (%) of the analyte [1, 15]: 0.05 ± 0.01%
Cumulative excretion of the analyte, SUM of urine and feces [1, 16]: 0.07 ± 0.01%
Cumulative excretion in feces (%) of the analyte [1, 17]: 0.57 ± 0.37%
Cumulative excretion in urine (%) of the analyte [1, 17]: 0.02 ± 0.02%
Cumulative excretion in feces (%) of the analyte [1, 18]: 0.65 ± 0.36%
Cumulative excretion in urine (%) of the analyte [1, 18]: 0.02 ± 0.03%
Cumulative excretion in feces (%) of the analyte [1, 19]: 0.65 ± 0.36%
Cumulative excretion in urine (%) of the analyte [1, 19]: 0.03 ± 0.03%
Cumulative excretion of the analyte, SUM of urine and feces ([1]; after oral harmine 40.0 mg/kg): 0.69 ± 0.36%

COc1ccc2c3c([nH]c2c1)C(C)=NCC3 [Harmaline]
Cumulative excretion in feces (%) of the analyte [1, 13]: 0.14 ± 0.10%
Cumulative excretion in urine (%) of the analyte [1, 13]: 4.00 ± 4.36%
Cumulative excretion in feces (%) of the analyte [1, 14]: 0.19 ± 0.12%
Cumulative excretion in urine (%) of the analyte [1, 14]: 4.71 ± 4.20%
Cumulative excretion in feces (%) of the analyte [1, 15]: 0.19 ± 0.12%
Cumulative excretion in urine (%) of the analyte [1, 15]: 4.85 ± 4.17%
Cumulative excretion of the analyte, SUM of urine and feces [1, 16]: 5.05 ± 4.12%
uptake ratio (UR) [2]: < 2.00 and 1.35
uptake ratio (UR) [3]: < 2.00 and 1.97
Papp B→A at 120 min, 2 μM [4]: 23.3 ± 1.4 ×10⁻⁶ cm/s
efflux ratio at 120 min, 2 μM ([4]; read-out: ER): 1.15
Papp A→B at 120 min, 2 μM [5]: 19.4 ± 3.23 ×10⁻⁶ cm/s
efflux ratio at 120 min, 2 μM ([5]; read-out: ER): 1.07
efflux ratio at 120 min, 2 μM [6]: 1.03
Papp A→B at 120 min, 2 μM [7]: 20.9 ± 2.9 ×10⁻⁶ cm/s
Papp B→A at 120 min, 2 μM [7]: 21.4 ± 1.96 ×10⁻⁶ cm/s
efflux ratio at 120 min, 2 μM ([7]; read-out: ER): 1.03
efflux ratios (ER) [8]: < 1.0
F-values [9]: 73.7% and 98.2% and 68.6% and 60.0%
efflux ratio [10]: 0.95
efflux ratio [11]: 1.13
efflux ratio [12]: 0.95
